The record followed here is article PMC10348910, “Epigenetic reprogramming of cell cycle genes by ACK1 promotes breast cancer resistance to CDK4/6 inhibitor” (Oncogene, 2023).

What all share (assay type): cell-based
The test system of one experiment is pY88-H4. Briefly: immunoprecipitation and immunoblotting for pY88-H4. The note with it: breast cancer cell lines; overnight. As to the method:
Fig. 4 ACK1 epigenetically modifies the chromatin landscape by depositing pY88-H4 activating marks, regulating cell cycle genes. A Breast cancer cell lines were treated with (R)-9b overnight and the cell lysates were subjected to immunoprecipitation using pY88-H4 antibody, followed by immunoblotting with H4 antibody. Lysates were also subjected to immunoblotting with total H4 and Actin antibodies, shown in the lower panels. […] B Venn diagrams summarizing the overlap between sites bound by pY88-H4 in vehicle treated and (R)-9b treated MDA-MB-453 cells. […] Breast cancer cells were subjected to ChIP using pY88-H4 antibody followed by qPCR for (D) CCNB1, (E) CCNB2, and (F) CDC20 genes. For (A), representative images of three independent experiments are shown. For (D–F), data are represented as the mean ± SEM. *p < 0.05, **p < 0.01, ***p < 0.001, unpaired two-tailed Student’s t test.
Vehicle or (R)-9b (5 µM, overnight in serum free media) treated cells were lysed by sonication in receptor lysis buffer (RLB) and lysates were fractionated by SDS-PAGE, and transferred onto a PVDF membrane (Immobilon). […]

For experiment [1], the system named is Palbociclib-resistant HCC-1395. The experiment is described as follows: proliferation assay, trypan blue exclusion. The note with it: palbociclib-resistant HCC-1395, 96 h. The method, then: (§1) A–F Breast cancer cells were treated with either vehicle or (R)-9b for 48 h; cells were harvested and processed for cell cycle analysis using propidium iodide staining, followed by flow cytometry. G BT549 and H MDA-MB-468 cells were treated with varying drug concentrations of palbociclib or (R)-9b for 96 h and the cell viability assessed using trypan blue exclusion method. I BT549, and J MDA-MB-468 cells were treated with 1 µM palbociclib or (R)-9b for 48 h and subjected to cell cycle analysis using propidium iodide staining, followed by flow-cytometry. Palbociclib-resistant MDA-MB-231 (K) and HCC-1395 (L) were generated and treated with varying drug concentrations of palbociclib or (R)-9b for 96 h and the cell viability assessed using trypan blue exclusion method.
(§2) The mid-G1 phase is governed by CDK4 and CDK6, two serine/threonine kinases the catalytic activity of which is modulated by D-type cyclins (D1, D2, and D3). […]
(§3) For proliferation assay, 5 × 10^4 cells were plated in 6-well plate and treated with either vehicle (DMSO) or varying concentrations of (R)-9b or palbociclib in complete media for 96 h and number of viable cells were counted by trypan blue exclusion assay. […] The cells were acquired using the BD FACSCalibur machine (BD Biosciences) and data was analyzed using FlowJo software. […] The data were analyzed using FlowJo software.

Experiment [2] relates to Palbociclib-resistant MDA-MB-231. Briefly: proliferation assay, trypan blue exclusion. The settings on record: palbociclib-resistant MDA-MB-231, 96 h. The method, then:
as §1, §2, §3

As for `CN1CCN(c2ccc(Nc3ncc(Cl)c(NC[C@H]4CCCO4)n3)cc2)CC1` [(R)-9b], the “pY88-H4 epigenetic marks (immunoblot)” value with pY88-H4 is on record as “significantly compromised”. Also, the “sensitivity (cell proliferation)” value in experiment [1] and in experiment [2] was “loss of proliferation” each time.
